Experimental data from PubChem BioAssay AID1996.
In brackets after ≈: the same amount, converted by molar mass.

Conditions: buffer; pH 7.4; 200.0 µM

| SMILES | solubility kinetic [µg/mL] |
| --- | --- |
| O=C(NC(=S)N1CCOCC1)c1ccc(F)cc1 | > 40.2 |
| COc1ccc(C(=O)N=c2sccn2C)cc1 | 36.1 (≈ 145 µM) |
| CCc1nc2ccccc2c(C(=O)Nc2ccc(C)cc2)c1C | < 0.3 |
| CC(=Nc1ccc(F)cc1)c1c(O)n(C)c(=O)[nH]c1=O | 7 (≈ 25.2 µM) |
| CCOC(=O)C(=O)N/N=C(/c1ccccc1)c1ccc(OC)cc1 | > 49 |
| Cc1ccc(Cl)cc1NC(=O)CCCN1C(=O)c2cccnc2C1=O | > 53.7 |
| Cc1cc(C)c(NC(=O)Cn2c([N+](=O)[O-])cnc2C)c(C)c1 | 4.1 (≈ 13.6 µM) |
| CN(C(=S)NCCN1CCOCC1)C(c1ccccc1)c1ccccc1 | 42.7 (≈ 116 µM) |
| O=C(CSc1ccccn1)NCc1ccc2c(c1)OCO2 | > 45.4 |
| Cc1ccsc1C(=O)N1CC=C(c2ccccc2)CC1 | > 42.5 |
| O=C(O)c1ccc(OCC(F)(F)F)nc1 | > 33.2 |
| O=C(c1ccc(Cl)cc1[N+](=O)[O-])N1CCc2ccccc2C1 | 6.1 (≈ 19.3 µM) |
| Cc1c(C)[n+](=O)c(-c2ccc(Br)cc2)c(C)n1[O-] | > 46.4 |
| CC(=O)c1ccc(NC(=O)C(C)O/N=C(\N)c2ccccc2)cc1 (stereo unspecified) | 45.5 (≈ 140 µM) |
| CC1(C)CN(C(=S)Nc2ccc(F)cc2F)C1=O | 5.1 (≈ 18.9 µM) |
| COc1ccccc1Nc1c2c(nc3ccc(N)cc13)CCCC2 | 47.2 (≈ 148 µM) |
| CCC(=O)Nc1cc2c3c(c1)CCC(=O)N3CCC2 | > 38.7 |
| COc1cc(C(=O)Nc2ccc(C)cc2)c2ccccc2n1 | < 0.3 |
| Cc1cnc(C(=O)OCC(=O)Nc2ccccc2[N+](=O)[O-])cn1 | > 47.4 |
| Cc1ccc(S(=O)(=O)N(CCO)Cc2ccccc2)cc1 | > 45.8 |
| CC1(C)CC2(CCO1)OC(=O)CC2C(=O)Nc1ccc(Cl)cc1[N+](=O)[O-] (stereo unspecified) | > 57.4 |

| SMILES | solubility kinetic [µg/mL] |
| --- | --- |
| CC(=O)c1ccccc1NC(=O)CSc1n[nH]c(=O)n1C1CC1 | > 49.9 |
| CCSCc1nc2ccccn2c1Br | 34.6 (≈ 128 µM) |
| COc1ccc(NC(=O)NCCc2ccc(Cl)cc2)cc1OC | < 0.4 |
| S=C(NCc1cccnc1)NCc1cccnc1 | 37.4 (≈ 145 µM) |
| COc1ccc(S(=O)(=O)Nc2ccc(Nc3ccccc3)cc2)cc1 | 4.7 (≈ 13.3 µM) |
| COc1ccccc1N(C)S(=O)(=O)c1ccc(Cl)c(C(=O)NCc2ccco2)c1 | 47.5 (≈ 109 µM) |
| Cn1ccc(C(=O)OCC(=O)Nc2ccccc2Cl)n1 | > 44.1 |
| O=C(Nc1cccc2ccccc12)NC1CCCCC1 | < 0.3 |
| O=C(c1cccc2nc3ccccc3nc12)N1CCOCC1 | 40.9 (≈ 139 µM) |
| COc1ccc(NC(=O)c2ccccc2-c2ccccc2)c(C)c1 | 7.2 (≈ 22.7 µM) |
| CC(C)(C)C(O)CN1CCCC1.Cl (stereo unspecified) | > 31.2 |
| O=C(Nc1ccc(N2CCOCC2)cc1)c1nc2ccccc2s1 | < 0.2 |
| C=CCN1CCN(C(=O)c2cc3c(s2)CCCC3)CC1 | > 43.6 |
| CC(=O)N1C(C)(C)CC(=NOC(=O)c2ccccc2)CC1(C)C | 47.1 (≈ 149 µM) |
| COc1ccccc1CNC(=O)c1ccc2ccccc2n1 | 15.8 (≈ 54 µM) |
| O=C(CCc1ccccc1)N1CCCC(Nc2ccc(F)cc2)C1 (stereo unspecified) | 41.4 (≈ 127 µM) |
| c1ccc(OCc2noc(CN3CC[C@@H]4CCCC[C@H]4C3)n2)cc1 | 6 (≈ 18.3 µM) |
| Cc1cc(=O)c(C(=O)O)nn1-c1ccccc1C(F)(F)F | > 44.7 |
| CSc1nc(C)c(Cc2c(F)cccc2Cl)c(=O)[nH]1 | 1 (≈ 3.35 µM) |
| CCOCCCNC(=O)c1cc2c(=O)[nH]c3ccccc3c2s1 | 1.7 (≈ 5.15 µM) |
| Cc1cc(=O)n(CC(=O)Nc2cc(Cl)ccc2C)c(C(C)C)n1 | 40.4 (≈ 121 µM) |

| SMILES | solubility kinetic [µg/mL] |
| --- | --- |
| COc1ccc(/C=C/C(=O)OCC(=O)N2CCCCCC2)cc1OC | 37.7 (≈ 109 µM) |
| S=C1NC2(CCCC2)Nc2ccccc21 | 32.5 (≈ 149 µM) |
| O=C(COC(=O)c1ccc2c(c1)OCCO2)NCc1ccccc1Cl | 5.2 (≈ 14.4 µM) |
| CC(=O)N=c1sc(S(N)(=O)=O)nn1C | > 35.4 |
| CCOC(=O)Nc1ccc2c(COC(=O)C(NS(=O)(=O)c3ccc(Cl)cc3)C(C)O)cc(=O)oc2c1 (stereo unspecified) | 20.5 (≈ 38 µM) |
| Cc1cc(C)cc(NS(=O)(=O)Cc2ccccc2)c1 | 39.5 (≈ 143 µM) |
| CCSc1nsc(NC(=O)Nc2ccccc2F)n1 | 1.4 (≈ 4.69 µM) |
| Cc1cc(C)nc(NC(=O)c2ccc(Cl)cc2Cl)n1 | 42 (≈ 142 µM) |
| Cc1ccc2[nH]cc(CCNC(=O)C3CCCCC3)c2c1 | 34.2 (≈ 120 µM) |
| Cn1c(=O)cc(Nc2ccccc2)[nH]c1=O | 10.3 (≈ 47.4 µM) |
| O=[N+]([O-])c1cc(S(=O)(=O)N2CCOCC2)ccc1NS(=O)(=O)c1ccccc1 | > 64.1 |
| C=CCNc1nc2c(c(=O)[nH]c(=O)n2C)n1CCCc1ccccc1 | 5.2 (≈ 15.3 µM) |
| CC(=O)c1ccc(NC(=S)NC2CCCC(C)C2C)cc1 (stereo unspecified) | 9.7 (≈ 31.9 µM) |
| Oc1ccc(Cl)cc1CNc1cnc2ccccc2c1 | 1.2 (≈ 4.21 µM) |
| COc1cccc(NC(=O)Nc2cccc(C)n2)c1 | 0.3 (≈ 1.17 µM) |
| Cc1ccc(S(=O)(=O)/N=C(/Nc2nc(C)cs2)c2ccccc2)cc1 | 8 (≈ 21.5 µM) |
| CC1CCN(C(=O)CNC(=O)c2cccc(OC(F)F)c2)CC1 | > 49 |
| O=C(O)/C(=C\c1ccco1)NC(=O)c1ccco1 | > 37.1 |
| CC1CCc2[nH]c3ccc(C(=O)O)cc3c2C1 (stereo unspecified) | > 34.4 |
